Experimental data: PubChem BioAssay (NCI)
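Values below derive from 48-hour exposures of cells grown in 96-well plates, with endpoints linearly interpolated between the two concentrations bracketing the appropriate inhibition level. TGI: concentration producing complete growth inhibition.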

How the values were obtained:
Experiment in all cases: DTP human tumour cell line panel, 48 h
786-0 renal = tested on: 786-0 renal
A549 NSCLC = tested on: A549 NSCLC
ACHN renal = tested on: ACHN renal
CAKI-1 renal = tested on: CAKI-1 renal
CCRF-CEM leukemia = tested on: CCRF-CEM leukemia
COLO 205 colon = tested on: COLO 205 colon
DLD-1 colon = tested on: DLD-1 colon
DMS 114 small cell lung = tested on: DMS 114 small cell lung
DMS 273 small cell lung = tested on: DMS 273 small cell lung
EKVX NSCLC = tested on: EKVX NSCLC
HCC-2998 colon = tested on: HCC-2998 colon
HCT-116 colon = tested on: HCT-116 colon
HCT-15 colon = tested on: HCT-15 colon
HL-60(TB) leukemia = tested on: HL-60(TB) leukemia
HOP-18 NSCLC = tested on: HOP-18 NSCLC
HOP-62 NSCLC = tested on: HOP-62 NSCLC
HOP-92 NSCLC = tested on: HOP-92 NSCLC
HT29 colon = tested on: HT29 colon
IGROV1 ovarian = tested on: IGROV1 ovarian
K-562 leukemia = tested on: K-562 leukemia
KM12 colon = tested on: KM12 colon
KM20L2 colon = tested on: KM20L2 colon
LOX IMVI melanoma = tested on: LOX IMVI melanoma
LXFL 529 NSCLC = tested on: LXFL 529 NSCLC
M14 melanoma = tested on: M14 melanoma
M19-MEL melanoma = tested on: M19-MEL melanoma
MALME-3M melanoma = tested on: MALME-3M melanoma
MOLT-4 leukemia = tested on: MOLT-4 leukemia
NCI-H226 lung = tested on: NCI-H226 lung
NCI-H23 lung = tested on: NCI-H23 lung
NCI-H460 lung = tested on: NCI-H460 lung
NCI-H522 lung = tested on: NCI-H522 lung
OVCAR-3 ovarian = tested on: OVCAR-3 ovarian
OVCAR-4 ovarian = tested on: OVCAR-4 ovarian
OVCAR-5 ovarian = tested on: OVCAR-5 ovarian
OVCAR-8 ovarian = tested on: OVCAR-8 ovarian
RPMI-8226 leukemia = tested on: RPMI-8226 leukemia
RXF 393 renal = tested on: RXF 393 renal
RXF-631 renal = tested on: RXF-631 renal
SF-268 CNS = tested on: SF-268 CNS
SF-295 CNS = tested on: SF-295 CNS
SF-539 CNS = tested on: SF-539 CNS
SK-MEL-2 melanoma = tested on: SK-MEL-2 melanoma
SK-MEL-28 melanoma = tested on: SK-MEL-28 melanoma
SK-MEL-5 melanoma = tested on: SK-MEL-5 melanoma
SK-OV-3 ovarian = tested on: SK-OV-3 ovarian
SN12C renal = tested on: SN12C renal
SNB-19 CNS = tested on: SNB-19 CNS
SNB-75 CNS = tested on: SNB-75 CNS
SNB-78 CNS = tested on: SNB-78 CNS
SW-620 colon = tested on: SW-620 colon
TK-10 renal = tested on: TK-10 renal
U251 CNS = tested on: U251 CNS
UACC-257 melanoma = tested on: UACC-257 melanoma
UACC-62 melanoma = tested on: UACC-62 melanoma
UO-31 renal = tested on: UO-31 renal
XF 498 CNS = tested on: XF 498 CNS
A498 renal = tested on: A498 renal
SR leukemia = tested on: SR leukemia

## OCC(O)C(O)c1nn(-c2ccccc2)c2nc3cc(Cl)c(Cl)cc3nc12 (stereo not drawn)
786-0 renal
  TGI: 68.4 µM
A549 NSCLC
  TGI: 57.4 µM
ACHN renal
  TGI: 75.6 µM
CAKI-1 renal
  TGI: 41.5 µM
CCRF-CEM leukemia
  TGI: > 100 µM
COLO 205 colon
  TGI: 86.4 µM
DLD-1 colon
  TGI: > 100 µM
DMS 114 small cell lung
  TGI: 71.4 µM
DMS 273 small cell lung
  TGI: 56.6 µM
EKVX NSCLC
  TGI: > 100 µM
HCC-2998 colon
  TGI: 86.5 µM
HCT-116 colon
  TGI: 54.4 µM
HCT-15 colon
  TGI: > 100 µM
HL-60(TB) leukemia
  TGI: 50.9 µM
HOP-18 NSCLC
  TGI: > 100 µM
HOP-62 NSCLC
  TGI: > 100 µM
HOP-92 NSCLC
  TGI: 82.1 µM
HT29 colon
  TGI: 56 µM
IGROV1 ovarian
  TGI: 90.7 µM
K-562 leukemia
  TGI: > 100 µM
KM12 colon
  TGI: 81.2 µM
KM20L2 colon
  TGI: 75.8 µM
LOX IMVI melanoma
  TGI: 58.1 µM
LXFL 529 NSCLC
  TGI: 70.9 µM
M14 melanoma
  TGI: > 100 µM
M19-MEL melanoma
  TGI: > 100 µM
MALME-3M melanoma
  TGI: 44.1 µM
MOLT-4 leukemia
  TGI: > 100 µM
NCI-H226 lung
  TGI: 73.6 µM
NCI-H23 lung
  TGI: > 100 µM
NCI-H460 lung
  TGI: 82.1 µM
NCI-H522 lung
  TGI: > 100 µM
OVCAR-3 ovarian
  TGI: 92.1 µM
OVCAR-4 ovarian
  TGI: 93.5 µM
OVCAR-5 ovarian
  TGI: 58.4 µM
OVCAR-8 ovarian
  TGI: 69.2 µM
RPMI-8226 leukemia
  TGI: > 100 µM
RXF 393 renal
  TGI: 47.4 µM
RXF-631 renal
  TGI: 91.5 µM
SF-268 CNS
  TGI: 80.5 µM
SF-295 CNS
  TGI: > 100 µM
SF-539 CNS
  TGI: 71 µM
SK-MEL-2 melanoma
  TGI: 74.1 µM
SK-MEL-28 melanoma
  TGI: > 100 µM
SK-MEL-5 melanoma
  TGI: > 100 µM
SK-OV-3 ovarian
  TGI: > 100 µM
SN12C renal
  TGI: > 100 µM
SNB-19 CNS
  TGI: > 100 µM
SNB-75 CNS
  TGI: 52 µM
SNB-78 CNS
  TGI: > 100 µM
SW-620 colon
  TGI: > 100 µM
TK-10 renal
  TGI: 48.4 µM
U251 CNS
  TGI: > 100 µM
UACC-257 melanoma
  TGI: > 100 µM
UACC-62 melanoma
  TGI: > 100 µM
UO-31 renal
  TGI: 63.5 µM
XF 498 CNS
  TGI: > 100 µM

## O=S1(=O)NNC(=NCc2ccc(Cl)cc2)c2ccccc21
786-0 renal
  TGI: > 100 µM
A498 renal
  TGI: > 100 µM
A549 NSCLC
  TGI: > 100 µM
ACHN renal
  TGI: > 100 µM
CAKI-1 renal
  TGI: > 100 µM
CCRF-CEM leukemia
  TGI: > 100 µM
COLO 205 colon
  TGI: > 100 µM
DLD-1 colon
  TGI: > 100 µM
DMS 114 small cell lung
  TGI: > 100 µM
DMS 273 small cell lung
  TGI: > 100 µM
EKVX NSCLC
  TGI: > 100 µM
HCC-2998 colon
  TGI: > 100 µM
HCT-116 colon
  TGI: > 100 µM
HCT-15 colon
  TGI: > 100 µM
HL-60(TB) leukemia
  TGI: > 100 µM
HOP-92 NSCLC
  TGI: > 100 µM
HT29 colon
  TGI: > 100 µM
IGROV1 ovarian
  TGI: > 100 µM
K-562 leukemia
  TGI: > 100 µM
KM12 colon
  TGI: > 100 µM
KM20L2 colon
  TGI: > 100 µM
LOX IMVI melanoma
  TGI: > 100 µM
LXFL 529 NSCLC
  TGI: > 100 µM
M14 melanoma
  TGI: > 100 µM
M19-MEL melanoma
  TGI: > 100 µM
MALME-3M melanoma
  TGI: > 100 µM
MOLT-4 leukemia
  TGI: > 100 µM
NCI-H226 lung
  TGI: > 100 µM
NCI-H460 lung
  TGI: > 100 µM
OVCAR-3 ovarian
  TGI: > 100 µM
OVCAR-4 ovarian
  TGI: > 100 µM
OVCAR-5 ovarian
  TGI: > 100 µM
OVCAR-8 ovarian
  TGI: > 100 µM
RPMI-8226 leukemia
  TGI: > 100 µM
RXF 393 renal
  TGI: > 100 µM
RXF-631 renal
  TGI: > 100 µM
SF-268 CNS
  TGI: > 100 µM
SF-295 CNS
  TGI: > 100 µM
SF-539 CNS
  TGI: > 100 µM
SK-MEL-2 melanoma
  TGI: > 100 µM
SK-MEL-5 melanoma
  TGI: > 100 µM
SN12C renal
  TGI: > 100 µM
SNB-19 CNS
  TGI: > 100 µM
SNB-78 CNS
  TGI: > 100 µM
SW-620 colon
  TGI: > 100 µM
U251 CNS
  TGI: > 100 µM
UACC-257 melanoma
  TGI: > 100 µM
UACC-62 melanoma
  TGI: > 100 µM
UO-31 renal
  TGI: > 100 µM
XF 498 CNS
  TGI: > 100 µM

## CC(C)[C@@H]1C=C(c2ccccc2)c2ccccc2C1C(C#N)(C#N)C(C)C (stereo partly drawn)
786-0 renal
  TGI: > 100 µM
A498 renal
  TGI: > 100 µM
A549 NSCLC
  TGI: > 100 µM
ACHN renal
  TGI: > 100 µM
CCRF-CEM leukemia
  TGI: > 100 µM
COLO 205 colon
  TGI: > 100 µM
DLD-1 colon
  TGI: > 100 µM
DMS 114 small cell lung
  TGI: > 100 µM
DMS 273 small cell lung
  TGI: > 100 µM
EKVX NSCLC
  TGI: > 100 µM
HCC-2998 colon
  TGI: > 100 µM
HCT-116 colon
  TGI: > 100 µM
HCT-15 colon
  TGI: > 100 µM
HL-60(TB) leukemia
  TGI: > 100 µM
HOP-18 NSCLC
  TGI: > 100 µM
HOP-62 NSCLC
  TGI: > 100 µM
HOP-92 NSCLC
  TGI: > 100 µM
HT29 colon
  TGI: > 100 µM
IGROV1 ovarian
  TGI: > 100 µM
K-562 leukemia
  TGI: > 100 µM
KM12 colon
  TGI: > 100 µM
KM20L2 colon
  TGI: > 100 µM
LOX IMVI melanoma
  TGI: > 100 µM
LXFL 529 NSCLC
  TGI: > 100 µM
M14 melanoma
  TGI: > 100 µM
M19-MEL melanoma
  TGI: > 100 µM
MALME-3M melanoma
  TGI: > 100 µM
MOLT-4 leukemia
  TGI: > 100 µM
NCI-H226 lung
  TGI: > 100 µM
NCI-H23 lung
  TGI: > 100 µM
NCI-H460 lung
  TGI: > 100 µM
OVCAR-3 ovarian
  TGI: > 100 µM
OVCAR-4 ovarian
  TGI: > 100 µM
OVCAR-5 ovarian
  TGI: > 100 µM
OVCAR-8 ovarian
  TGI: > 100 µM
RPMI-8226 leukemia
  TGI: > 100 µM
RXF 393 renal
  TGI: > 100 µM
SF-268 CNS
  TGI: > 100 µM
SF-295 CNS
  TGI: > 100 µM
SF-539 CNS
  TGI: > 100 µM
SK-MEL-2 melanoma
  TGI: > 100 µM
SK-MEL-28 melanoma
  TGI: > 100 µM
SK-MEL-5 melanoma
  TGI: > 100 µM
SK-OV-3 ovarian
  TGI: > 100 µM
SN12C renal
  TGI: > 100 µM
SNB-19 CNS
  TGI: > 100 µM
SNB-75 CNS
  TGI: > 100 µM
SNB-78 CNS
  TGI: > 100 µM
SR leukemia
  TGI: > 100 µM
SW-620 colon
  TGI: > 100 µM
TK-10 renal
  TGI: > 100 µM
U251 CNS
  TGI: > 100 µM
UACC-257 melanoma
  TGI: > 100 µM
UACC-62 melanoma
  TGI: > 100 µM
UO-31 renal
  TGI: > 100 µM
XF 498 CNS
  TGI: > 100 µM
